Measurements taken from the supplement of paper PMC7840683.
± gives the standard deviation of the averaged measurements.

System: HepaRG
Experiment: LDH release cytotoxicity, % of total lysis control; higher = more cytotoxic
Settings: 48 h
Summary of the method: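 Percent cytotoxicity was scaled between on-plate vehicle and total lysis controls, then averaged over duplicate wells. The cells were single-lot HepaRG on collagen I-coated 96-well plates, exposed for 48 h to eight-point half-log test chemical series topping at 100 µM in serum-free induction medium with 0.5% DMSO. Total lysis wells got 0.1% Triton X, and LDH in 50 µL spent medium was read as resorufin fluorescence (CytoTox-ONE, Tecan Safire).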

CCC(=C(c1ccc(O)cc1)c1ccc(OCCN(C)C)cc1)c1ccccc1 [4-Hydroxytamoxifen]
Settings | LDH release cytotoxicity [%]
0.031623 µM | -1.94 ± 1
0.1 µM | -3.22 ± 0.47
0.316228 µM | -3.61 ± 1.1
1 µM | -3.76 ± 0.11
3.16228 µM | -3.7 ± 0.16
10 µM | -3.42 ± 0.63
31.6228 µM | -3.18 ± 0.93
100 µM | -0.0951 ± 1.1

O=C(NO)C1(NS(=O)(=O)c2ccc(Oc3ccc(F)cc3)cc2)CCOCC1
Settings | LDH release cytotoxicity [%]
0.03162 µM | 0.225 ± 0.2
0.1 µM | -0.912 ± 0.77
0.3162278 µM | -0.649 ± 0.23
1 µM | -0.54 ± 0.41
3.16228 µM | -0.318 ± 0.55
10 µM | -0.00829 ± 0.11
31.6228 µM | -1.25 ± 0.49
100 µM | 10.5 ± 1.4

Cc1cc(CCN2CCN(c3nsc4ccccc34)CC2)cc2c1NC(=O)CC2(C)C
Settings | LDH release cytotoxicity [%]
0.03162 µM | -0.898 ± 0.3
0.1 µM | -1.13 ± 1.4
0.3162278 µM | -0.946 ± 0.34
1 µM | -0.828 ± 0.57
3.16228 µM | -0.925 ± 0.38
10 µM | -1.14 ± 0.57
31.6228 µM | -0.566 ± 0.6
100 µM | -0.469 ± 0.49

Cc1ccccc1O [o-Cresol]
Settings | LDH release cytotoxicity [%]
0.03162 µM | -1.5 ± 0.25
0.1 µM | -1.22 ± 0.88
0.3162278 µM | -1.45 ± 0.22
1 µM | -2.213 ± 0.0064
3.16228 µM | -1.71 ± 0.043
10 µM | -0.686 ± 0.64
31.6228 µM | -0.0502 ± 0.045
100 µM | 12.99 ± 0.038

Clc1ccccc1Cl [1,2-Dichlorobenzene]
Settings | LDH release cytotoxicity [%]
0.03162 µM | -1.68 ± 0.72
0.1 µM | -1.12 ± 0.22
0.3162278 µM | -2 ± 0.56
1 µM | -1.81 ± 0.094
3.16228 µM | -1.83 ± 0.1
10 µM | -1.2 ± 0.57
31.6228 µM | -1.06 ± 0.67
100 µM | -0.133 ± 0.15

CC(N)=O [Acetamide]
Settings | LDH release cytotoxicity [%]
0.03162 µM | -1.42 ± 0.94
0.1 µM | -0.0289 ± 1.8
0.3162278 µM | -1.35 ± 0.33
1 µM | -2.5 ± 0.18
3.16228 µM | -2.19 ± 1.4
10 µM | -0.925 ± 0.15
31.6228 µM | -0.0914 ± 0.22
100 µM | 1.3 ± 0.62

COc1cc(C(=O)NC2CCN(C)CC2)ccc1Nc1ncc2c(n1)N(C1CCCC1)CC(F)(F)C(=O)N2C
Settings | LDH release cytotoxicity [%]
0.02941 µM | -0.558 ± 1.5
0.093 µM | 1.88 ± 0.43
0.294092 µM | 6.47 ± 1.2
0.93 µM | 10.3 ± 0.45
2.9409182 µM | 9.21 ± 3.6
9.3 µM | 12.6 ± 0.61
29.4092 µM | 88.1 ± 6.3
93 µM | 90.9 ± 9.2

C=CC(=O)OCCCCCC(C)C [Isooctyl acrylate]
Settings | LDH release cytotoxicity [%]
0.03162 µM | -1 ± 0.16
0.1 µM | -1.54 ± 0.15
0.3162278 µM | -2.08 ± 0.28
1 µM | -1.07 ± 0.63
3.16228 µM | -1.61 ± 0.64
10 µM | -1.55 ± 0.55
31.6228 µM | -0.382 ± 0.33
100 µM | 0.567 ± 1.4

O=C(Nc1ccccc1)Nc1cnns1 [Thidiazuron]
Settings | LDH release cytotoxicity [%]
0.03162 µM | -1.24 ± 0.048
0.1 µM | -0.715 ± 0.86
0.3162278 µM | -0.562 ± 0.16
1 µM | -0.873 ± 0.82
3.16228 µM | -1.15 ± 0.018
10 µM | -0.652 ± 1.3
31.6228 µM | -0.0499 ± 1.6
100 µM | 17.6 ± 3.5

CNC(C)=O [N-Methylacetamide]
Settings | LDH release cytotoxicity [%]
0.03162 µM | -1.43 ± 0.55
0.1 µM | -0.843 ± 0.23
0.3162278 µM | -1.8 ± 0.64
1 µM | -2.12 ± 0.12
3.16228 µM | -2.26 ± 0.74
10 µM | -2.1 ± 0.54
31.6228 µM | -2.47 ± 0.73
100 µM | 34 ± 4.3

CCCCCCOC(=O)CC(CC(=O)OCCCCCC)(OC(=O)CCC)C(=O)OCCCCCC [Butyryl-n-trihexylcitrate]
Settings | LDH release cytotoxicity [%]
0.03162 µM | -0.556 ± 0.23
0.1 µM | -0.753 ± 0.66
0.3162278 µM | -0.622 ± 0.2
1 µM | -0.825 ± 0.23
3.16228 µM | -0.796 ± 0.43
10 µM | -0.597 ± 0.75
31.6228 µM | -0.0452 ± 0.87
100 µM | 0.5774 ± 0.0031

O=C(O)C(F)(F)C(F)(F)C(F)(F)C(F)(F)C(F)(F)C(F)(F)C(F)(F)C(F)(F)C(F)(F)C(F)(F)F [Perfluoroundecanoic acid]
Settings | LDH release cytotoxicity [%]
0.0302 µM | -0.896 ± 0.4
0.0955 µM | -2.14 ± 0.16
0.301998 µM | -0.462 ± 0.4
0.955 µM | -1.31 ± 0.4
3.01998 µM | -1.93 ± 0.38
9.55 µM | -1.78 ± 2
30.1998 µM | -0.387 ± 0.52
95.5 µM | 1.42 ± 0.46

OC[C@@H](O)[C@@H](O)[C@H](O)[C@H](O)CO [D-Mannitol]
Settings | LDH release cytotoxicity [%]
0.031623 µM | -0.135 ± 0.17
0.1 µM | -2.88 ± 0.9
0.316228 µM | -2.85 ± 0.69
1 µM | -2.73 ± 0.41
3.16228 µM | -2.39 ± 0.089
10 µM | -1.31 ± 0.43
31.6228 µM | 0.669 ± 0.23
100 µM | 3.29 ± 0.076

C[N+](C)(C)CC1CO1 (configuration not stated) [Glycidyl trimethylammonium chloride]
Settings | LDH release cytotoxicity [%]
0.03162 µM | -0.794 ± 0.83
0.1 µM | -0.64 ± 0.72
0.3162278 µM | -0.926 ± 0.041
1 µM | -1.32 ± 0.64
3.16228 µM | -1.48 ± 0.5
10 µM | -0.844 ± 0.16
31.6228 µM | -0.342 ± 0.33
100 µM | 0.366 ± 0.66

O=C(O)C(Cl)(Cl)Cl [Trichloroacetic acid]
Settings | LDH release cytotoxicity [%]
0.03162 µM | -0.739 ± 0.85
0.1 µM | -2.11 ± 0.056
0.3162278 µM | -2.765 ± 0.0095
1 µM | -2.27 ± 0.54
3.16228 µM | -2.74 ± 0.85
10 µM | -2.07 ± 0.18
31.6228 µM | -1.13 ± 0.15
100 µM | 0.84 ± 1.1

NCCO [Ethanolamine]
Settings | LDH release cytotoxicity [%]
0.03162 µM | -2.14 ± 1.3
0.1 µM | -2 ± 1.6
0.3162278 µM | -1.29 ± 0.49
1 µM | -1.55 ± 0.046
3.16228 µM | -0.642 ± 0.088
10 µM | -0.777 ± 0.073
31.6228 µM | -0.101 ± 0.76
100 µM | 0.0783 ± 0.76

O=C(O)c1ccccc1C(=O)OCc1ccccc1 [Monobenzyl phthalate]
Settings | LDH release cytotoxicity [%]
0.03162 µM | -6.32 ± 1.2
0.1 µM | -7.14 ± 0.13
0.3162278 µM | -7.38 ± 0.78
1 µM | -7.25 ± 1
3.16228 µM | -7.03 ± 0.21
10 µM | -6.25 ± 0.21
31.6228 µM | -5.79 ± 1.9
100 µM | -5.73 ± 0.38

O=[N+]([O-])c1ccc(O)cc1 [Sodium 4-nitrophenolate]
Settings | LDH release cytotoxicity [%]
0.03162 µM | -0.704 ± 0.2
0.1 µM | -1.68 ± 0.15
0.3162278 µM | -1.99 ± 0.34
1 µM | -1.48 ± 0.37
3.16228 µM | -1.71 ± 0.25
10 µM | -1.02 ± 0.3
31.6228 µM | -0.45 ± 0.45
100 µM | 0.91 ± 0.54

Cc1nccn1-c1ccc(Sc2cccc(C3(C(N)=O)CCOCC3)c2)cc1
Settings | LDH release cytotoxicity [%]
0.03162 µM | -2.79 ± 0.052
0.1 µM | -3.28 ± 1.4
0.3162278 µM | -2.87 ± 1
1 µM | -3.4 ± 0.34
3.16228 µM | -2.44 ± 0.034
10 µM | 7.65 ± 1.9
31.6228 µM | 31.9 ± 0.88
100 µM | 42.52 ± 0.32
